Ki, Raw fluorescence intensity and IC50 data for two molecules are collected here from paper PMC12652730, “The Chemoreceptive Molecular Mechanism Underlying CSP-Mediated Recognition of Seed Elaiosome from Stemona tuberosa by Hornets” (Genes, 2025).

One test addresses CsasCSP16. Set-up: method as in PMID 34082360. Particulars: CsasCSP16 from Carposina sasakii ref 42; cited from earlier work.
The next test deals with VvelCSP1 (Vespa velutina auraria, UniProt A0A384ZVP9). Briefly: Fluorescence competitive binding assay (1-NPN probe) with VvelCSP1. How it is done: (§1) Fluorescence competitive binding assays were employed to characterize the interactions between VvelCSPs and 13 volatiles shared between the elaiosomes of S. tuberosa and the cuticular hydrocarbons of honeybees. These tests were performed in 1 cm path length quartz cuvettes with an excitation wavelength of 337 nm and emission wavelength scanning from 400–450 nm. The volatiles and the fluorescent probe 1-NPN (1-N-phenylnaphthylamine), listed in Supplementary Table S2, were dissolved in methanol to prepare 100 mM stock solutions, which were then diluted to 1 mM working solutions [25]. To remove any potential endogenous ligands, the purified proteins were delipidated by three washes with an equal volume of dichloromethane (1:1 v/v). Each wash involved a 10-min incubation, and the process was followed by evaporation of the residual solvent under a gentle stream of nitrogen. Purified CSPs were resuspended in 20 mM Tris-HCl buffer (pH 7.5) to a final concentration of 2 μM. Binding parameters for CSP-NPN were determined by titration: 2 mL of CSP solution (2 μM) was titrated with 1-NPN (final concentrations: 2−24 μM). Maximum fluorescence intensity was recorded, and the dissociation constant was calculated. […] After incubation in the dark for 2 min, fluorescence quenching was measured. Half-maximal inhibitory concentration (IC50) values for volatiles were calculated from the competition curves, and their binding constants (Ki) were subsequently derived. The presented data, including IC50 and Ki values, originate from a single experiment under uniform conditions to ensure comparability (Supplementary Table S3).
Sequence of VvelCSP1 (A0A384ZVP9 entry or part of it): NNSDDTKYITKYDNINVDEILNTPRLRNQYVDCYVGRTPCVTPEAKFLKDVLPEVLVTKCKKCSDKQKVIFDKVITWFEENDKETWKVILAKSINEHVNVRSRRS

For a further test, the target named is VvelCSP4. Briefly: Fluorescence competitive binding assay (1-NPN probe) with VvelCSP4. Set-up: species or system Vespa velutina auraria. How it is done: as §1

SMILES strings stand for the structures.

As for `CCCCCCCCCCCCCCC` [pentadecane], the Ki on CsasCSP16 was 3.5 µM.

As to `CCCCCCCCCCCCCCCCCCCCC` [Heneicosane], the Raw fluorescence intensity at VvelCSP1 (VvelCSP1, chemical 0.5 μM) was determined as 190.87; at VvelCSP1 (VvelCSP1, chemical 1 μM), 168.28; on VvelCSP1 (VvelCSP1, chemical 2 μM) it was 152.31; on VvelCSP1 (VvelCSP1, chemical 4 μM), 138.38; on VvelCSP1 (VvelCSP1, chemical 6 μM) it was 134.83; on VvelCSP1 (VvelCSP1, chemical 8 μM), 130.66. Moreover, the Raw fluorescence intensity at VvelCSP1 (VvelCSP1, chemical 12 μM) came out at 127.58; on VvelCSP1 (VvelCSP1, chemical 16 μM) it was 125.86; in the test on VvelCSP4 (VvelCSP4, chemical 0.5 μM), 252.45; in the test with VvelCSP4 (VvelCSP4, chemical 1 μM), 226.44; with VvelCSP4 (VvelCSP4, chemical 2 μM) it was 209.89; in the test with VvelCSP4 (VvelCSP4, chemical 4 μM), 178.34. Besides, the Raw fluorescence intensity in the test with VvelCSP4 (VvelCSP4, chemical 6 μM) came out at 161.57; in the test with VvelCSP4 (VvelCSP4, chemical 8 μM) it was 149.85; with VvelCSP4 (VvelCSP4, chemical 12 μM), 143.60; in the test on VvelCSP4 (VvelCSP4, chemical 16 μM), 140.19. For the same molecule, on VvelCSP4 (VvelCSP4 2 μM, 1-NPN 1 μM, Tris-HCl pH 7.5, single experiment, read-out: IC50 (ligand concentration displacing 50% of the fluorescence intensity of the CSPs/NPN complex)), the IC50 is 19.8 µM. The Ki on VvelCSP4 (VvelCSP4, derived from IC50, read-out: Ki (dissociation constant)) was 14.7 µM.
